Results: US6878751B1, “Administration of resveratrol to treat inflammatory respiratory disorders” (Imperial College of Science Technology and Medicine, priority 2000, dated 2005)
Where two headings read alike, the source gives them in different places.

What was measured:
iNOS = iNOS activity by nitrite and nitrite/nitrate accumulation in cytomix-stimulated human primary epithelial cells; format: cell-based; conditions: for EC50: Homo sapiens, Epithelial cell, 24 h
Procedure: The inducible form of the enzyme NO synthase, iNOS(NOS2), which is known to be expressed during inflammation, is thought to be responsible for increased NO levels of asthmatic patients. Agents known to induce iNOS in human primary epithelial cells, such as interleukin-1β, tumor necrosis factor-α, and interferon-γ (cytomix) are useful in assaying resveratrol for inhibition of iNOS expression and activity, and comparing its effect to steroids.
(§1) Human primary epithelial cells are cultured from normal donor tissue. Explant cultures of tissue obtained from normal human lung transplant donors provided human primary epithelial (HPE) cells. The HPE cells were cultured in Ham's F12 nutrient medium containing 5% (v/v) fetal calf serum (FCS), 1 μM hydrocortisone, 5 ng/ml EGF (epithelial growth factor), 10 μg/ml insulin, 10 nM retinoic acid, 0.5 μg/ml transferrin, 2 μg/ml triiodothyronine, 1.5 μg/ml NaHCO3, 100 μg/ml penicillin, 100 μg/ml streptomycin and 0.25 μg/m amphotericin B; the cells were incubated at 37° C. in a humidified atmosphere containing 95% (v/v) air, 5% (v/v) CO2. The HPE cells were cultured for the last 24 hours prior to the experimental treatments under the same conditions except that additive free Ham's F12 media was substituted for the supplemented Ham's F12 media described above.
These cells were stimulated for 24 hours with 50 ng/ml cytomix (interferon-γ) in the absence or presence of resveratrol, or one of glucocorticoids, dexamethasone and budenoside. Activity of iNOS is measured by determination of […] and nitrite/nitrate accumulation. Nitrite was measured by a modification of the method of Misko, et al. (1993) Anal. Biochem. 214:11-16. […] The reaction was stopped by addition of 10 μl of 1.4M NaOH, and fluorescense was measured with a Biolite F1 fluorimeter (Labtech, Uckfield, U.K.) set at: 460 nm emission wavelength, 360 nm excitation wavelength, 40-50% sensitivity. Sample nitrite concentration was calculated by reference to a standard curve of known nitrite concentrations, permitting assay sensitivity to 0.1 μM.

iNOS mRNA = iNOS mRNA expression by RT-PCR in cytomix-treated primary epithelial cells; format: cell-based, human; conditions: primary epithelial cells treated 4 hours with cytomix
Procedure: as §1
Expression of mRNA for iNOS was evaluated by RT-PCR of RNA extracted from the cells using the Qiagen RNeasy mini kit as directed by the manufacturer (Crawley, Sussex, U.K.). RT-PCR was performed according to routine methods. […]

[1] = system: IL-8 release, BEAS-2B cells; test: IL-8 release (ELISA) in IL-1β stimulated BEAS-2B cells; format: cell-based; conditions: Homo sapiens, 1 ng/ml IL-1β, read-out: EC50 for inhibition of the release of IL-8
Procedure: The human airway epithelial cell line A549 may be employed to study resveratrol inhibition of the release of IL-8 (interleukin 8) and GM-CSF (granulocyte macrophage-colony stimulating factor) by a 1 ng/ml stimulation with IL-1β (interleukin 1β). A549 cells, BEAS-2B cells and 16HBE-16o^− cells were stimulated with 1 ng/ml levels of IL-1β in the presence of resveratrol.
Cells, including the A549 cells, were cultured in Dulbecco's modified Eagle's medium (DMEM) 10% (v/v) fetal calf serum (FCS), 100 μg/ml penicillin and 100 μg/ml streptomycin. IL-8 release was measured by commercially available ELISA kit (R&D Systems).

[2] = system: TRE dependent transcription; test: TRE (AP-1) luciferase reporter in stably transfected A549 cells; format: cell-based, human
Procedure: The expression of inflammatory genes was then evaluated in cells transformed with luciferase reporter genes containing sites for transcription factors (Tf, Tfs). The A549 cells were stably transfected by routine methods with luciferase reporters containing the transcription factors NF-κB, TRE (AP-1, TPA responsive element) and CRE (cAMP responsive element). Luciferase activity of cell lysates resuspended in […] cell lysis buffer mixed (40 mml resuspended lysate: 40 mml assay reagent) was measured using the Luciferase Assay System (Promega), with emitted light measured by a Turner DesignsTD-20/20 luminometer (Steptech Instruments Ltd., Stevenage, U.K.)

With `Oc1ccc(/C=C/c2cc(O)cc(O)c2)cc1` [Resveratrol, 3,5,4′-trihydroxystilbene] the “inhibition of nitrite formation / accumulation in the cell culture media” value (iNOS; HPE cells, cytomix 24 hours, steroids at 10^−9 M to 10^−5 M) was “only agent able to inhibit nitrite formation”, the EC50 (iNOS; read-out: EC50 for nitrite accumulation) was 3.6 ± 2.9 µM and the EC50 (iNOS; read-out: EC50 for nitrite/nitrate accumulation) was 0.88 ± 0.47 µM. The “inhibition of iNOS expression as measured by mRNA” value (iNOS mRNA) was “inhibited iNOS expression”, the EC50 [1] was 111 ± 2.9 µM and the “extent of inhibition of TRE dependent transcription” value [2] was 85%. The EC50 ([2]; Homo sapiens, read-out: EC50 for inhibition of TRE dependent transcription) was 7 ± 4 µM.
